As a reminder, the melting point is the temperature, or range, at which the solid turns liquid.

Data set [1] relates to S. aureus IP8203 sensitive. Briefly: MIC by dilutions in agar medium (NCCLS), Gram-positive. The data set is classed as cell-based. Conditions: Staphylococcus aureus; at 24 hours; agar dilution. The text has this: (§1) The method of dilutions in agar medium in agreement with the NCCLS recommendations is used for the determination of the minimum inhibitory concentrations (MIC) expressed in mg/l.
(§2) The activities of the compounds of examples 5, 8, 10-13 are grouped together in the following table: […]
In general terms: In agar dilution, organisms are placed on agar that contains the substance at set levels.

The subject of data set [2] is S. aureus AS 5155 methicillin resistant. The description is as above. The note with it: Staphylococcus aureus; at 24 hours; agar dilution. In kind it is cell-based.
Excerpt: as §1, §2

For data set [3], the system named is E. faecalis ATCC S343211 vancomycin resistant. The description is as above. The data set is classed as cell-based. The note with it: Enterococcus faecalis; at 24 hours; agar dilution.
Excerpt: as §1, §2

Data set [4] has as its system S. pneumoniae 6254-01 MLSB resistant. The description is as above. The data set is classed as cell-based. The note with it: Streptococcus pneumoniae; at 24 hours; agar dilution.
Excerpt: as §1, §2

Data set [5] has as its system M. catarrhalis IPA151 sensitive. Briefly: MIC by dilutions in agar medium (NCCLS), Gram-negative. In kind it is cell-based. Conditions: Moraxella catarrhalis, IPA151SENSITIVE; at 48 hours; agar dilution.
Excerpt: as §1, §2

The subject of data set [6] is H. influenzae MDK 1528 sensitive. The description is as above. The note with it: Haemophilus influenzae; at 48 hours; agar dilution. In kind it is cell-based.
Excerpt: as §1, §2

In brackets after ≈: the same amount, converted by molar mass.

Regarding `COc1ccc2ncc(F)c(CCCC(CNC/C=C/c3cc(F)ccc3F)C(=O)O)c2c1` (racemic) [Example 5, (RS)-2-{[(E)-3-(2,5-difluorophenyl)allylamino]methyl}-5-(3-fluoro-6-methoxyquinolin-4-yl)pentanoic acid], the MIC in data set [1] was 0.12 to 1 µg/mL (≈ 0.262 to 2.18 µM); in data set [2] it was 0.12 to 1 µg/mL (≈ 0.262 to 2.18 µM); in data set [3], 0.25 to 1 µg/mL (≈ 0.545 to 2.18 µM); in data set [4] it was 0.25 to 0.5 µg/mL (≈ 0.545 to 1.09 µM); in data set [5], 0.5 to 4 µg/mL (≈ 1.09 to 8.72 µM); in data set [6], 2 to 8 µg/mL (≈ 4.36 to 17.4 µM).
On to `COc1ccc2ncc(F)c(CCCC(CNCCCc3cc(F)ccc3F)C(=O)O)c2c1` (racemic) [Example 8, (RS)-2-{[3-(2,5-difluorophenyl)propylamino]methyl}-5-(3-fluoro-6-methoxyquinolin-4-yl)pentanoic acid], for which the MIC in data set [1] was in the range of 0.12 to 1 µg/mL (≈ 0.261 to 2.17 µM); in data set [2], 0.12 to 1 µg/mL (≈ 0.261 to 2.17 µM); in data set [3] it was 0.25 to 1 µg/mL (≈ 0.543 to 2.17 µM); in data set [4] it was 0.25 to 0.5 µg/mL (≈ 0.543 to 1.09 µM); in data set [5], 0.5 to 4 µg/mL (≈ 1.09 to 8.69 µM); in data set [6] it was 2 to 8 µg/mL (≈ 4.34 to 17.4 µM).
Regarding `COc1ccc2ncc(F)c(CCCC(CN(C)C/C=C/c3cc(F)ccc3F)C(=O)[O-])c2c1.[Na+]` (racemic) [Example 10, Sodium (RS)-2-({N-[(E)-3-(2,5-difluorophenyl)allyl]-N-methylamino}methyl)-5-(3-fluoro-6-methoxyquinolin-4-yl)pentanoate], the MIC fell in the range of 0.12 to 1 µg/mL in data set [1]; 0.12 to 1 µg/mL in data set [2]; 0.25 to 1 µg/mL in data set [3]; 0.25 to 0.5 µg/mL in data set [4]; 0.5 to 4 µg/mL in data set [5]; 2 to 8 µg/mL in data set [6].
Regarding `COc1ccc2ncc(F)c(CCCC(CNCCSc3cccs3)C(=O)O)c2c1` (racemic) [Example 11, (RS)-5-(3-Fluoro-6-methoxyquinolin-4-yl)-2-{[2-(thiophen-2-ylsulfanyl)ethylamino]methyl}pentanoic acid], the MIC in data set [1] was 0.12 to 1 µg/mL (≈ 0.268 to 2.23 µM); in data set [2], 0.12 to 1 µg/mL (≈ 0.268 to 2.23 µM); in data set [3], 0.25 to 1 µg/mL (≈ 0.557 to 2.23 µM); in data set [4], 0.25 to 0.5 µg/mL (≈ 0.557 to 1.11 µM); in data set [5] it was 0.5 to 4 µg/mL (≈ 1.11 to 8.92 µM); in data set [6] it was 2 to 8 µg/mL (≈ 4.46 to 17.8 µM).
Consider `COc1ccc2ncc(F)c(CCCC(CNCCSc3cc(F)ccc3F)C(=O)O)c2c1` (racemic) [Example 12, (RS)-2-{[2-(2,5-Difluorophenylsulfanyl)ethylamino]-methyl}-5-(3-fluoro-6-methoxyquinolin-4-yl)pentanoic acid], for which the MIC was in the range of 0.12 to 1 µg/mL (≈ 0.251 to 2.09 µM) in data set [1]; 0.12 to 1 µg/mL (≈ 0.251 to 2.09 µM) in data set [2]; 0.25 to 1 µg/mL (≈ 0.522 to 2.09 µM) in data set [3]; 0.25 to 0.5 µg/mL (≈ 0.522 to 1.04 µM) in data set [4]; 0.5 to 4 µg/mL (≈ 1.04 to 8.36 µM) in data set [5]; 2 to 8 µg/mL (≈ 4.18 to 16.7 µM) in data set [6].
With `COc1ccc2ncc(F)c(CCCC(CNCCOc3cc(F)ccc3F)C(=O)O)c2c1` (racemic) [Example 13, (RS)-2-{[2-(2,5-Difluorophenoxy)ethylamino]methyl}-5-(3-fluoro-6-methoxyquinolin-4-yl)pentanoic acid], the MIC was in the range of 0.12 to 1 µg/mL (≈ 0.259 to 2.16 µM) in data set [1]; 0.12 to 1 µg/mL (≈ 0.259 to 2.16 µM) in data set [2]; 0.25 to 1 µg/mL (≈ 0.541 to 2.16 µM) in data set [3]; 0.25 to 0.5 µg/mL (≈ 0.541 to 1.08 µM) in data set [4]; 0.5 to 4 µg/mL (≈ 1.08 to 8.65 µM) in data set [5]; 2 to 8 µg/mL (≈ 4.32 to 17.3 µM) in data set [6].
`COc1ccc2ncc(F)c(CCCC(CN(C/C=C/c3cc(F)ccc3F)CCF)C(=O)O)c2c1` (racemic) [Example 14, (RS)-2-{[N-[(E)-3-(2,5-difluorophenyl)allyl]-N-(2-fluoroethyl)amino]methyl}-5-(3-fluoro-6-methoxy-quinolin-4-yl)pentanoic acid] gave a melting point of 120 °C.
Same read-out and setting: the value for `COc1ccc2ncc(F)c(CCCC(CNC/C=C/c3cc(F)ccc3F)C(=O)O)c2c1` (single isomer, unassigned) [Example 6, 2-{[(E)-3-(2,5-difluorophenyl)allylamino]methyl}-5-(3-fluoro-6-methoxyquinolin-4-yl)pentanoic acid] was 168 °C.
The compound `COc1ccc2ncc(F)c(CCCC(CNC/C=C/c3cc(F)ccc3F)C(=O)O)c2c1` (single isomer, unassigned) [Example 7, 2-{[(E)-3-(2,5-difluorophenyl)allylamino]methyl}-5-(3-fluoro-6-methoxyquinolin-4-yl)pentanoic acid] displayed a melting point of 166 °C.
